Measured values reported in patent publication EP4039264A1, “ORAL PEPTIDE ANTAGONISTS OF MULTIPLE CHEMOKINE RECEPTORS FOR REVERSING LOSS OF SYNAPSES AND DENDRITIC SPINES” (Creative Bio-Peptides Inc., priority 2021, dated 2022).

Experiments:
[1] = target: CXCR4 (Mus musculus, UniProt P70658); conditions: CXCR4 tropic gp120; cultured mouse hippocampal neurons devoid of immune cells
Description: Aβd/t was isolated from medium of cultured 7PA2 cells, a CHO cell line expressing a form of human APP found in Familial AD. […] Neuronal cultures, fixation, permeabilization, blocking and immunostaining is performed starting with E16.5 mouse hippocampal neurons by common methods in broad use.
Images of fixed neurons immunostained for cofilin, growth cones and nuclei captured across the entire coverslip are exported to ImageJ. Macro functions are applied to set local threshold and shape/size segmentation for both the cofilin and growth cone antibodies. Cofilin stained material that is not within neurites is eliminated. Results are reported as rods/nucleus, number of rods per area, rods as percent of total area, or, if NeuN stained or identified morphologically, rods per neuron.

[2] = system: CCR5; conditions: pharmacologic blockade of CCR5 after stroke and traumatic brain injury; cited from earlier work
[3] = target: T1, CCR5 (Mus musculus, UniProt P51682); assay: gp120-induced cofilin-rod formation in cultured hippocampal neurons, CCR5-tropic gp120 (Fig. 2A); format: cell-based; conditions: cultured mouse hippocampal neurons devoid of immune cells
T1 construct: neurons express CCR5 and CXCR4 receptors that control synapse regeneration; endogenous in cells; host or cells: primary E16.5 mouse hippocampal neurons
T1 sequence (P51682 whole entry): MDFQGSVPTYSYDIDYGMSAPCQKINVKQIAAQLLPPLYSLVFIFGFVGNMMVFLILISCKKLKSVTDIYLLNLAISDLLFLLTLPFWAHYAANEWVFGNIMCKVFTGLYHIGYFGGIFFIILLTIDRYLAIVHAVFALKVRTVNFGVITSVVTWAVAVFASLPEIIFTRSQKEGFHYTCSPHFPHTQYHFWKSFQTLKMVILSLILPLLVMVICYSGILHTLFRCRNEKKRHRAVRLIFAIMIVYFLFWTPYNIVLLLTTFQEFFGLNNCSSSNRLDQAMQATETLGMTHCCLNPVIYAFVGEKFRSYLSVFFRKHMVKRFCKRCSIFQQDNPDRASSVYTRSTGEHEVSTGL

[4] = HAND phase 2 human trials and brain scans; cited from earlier work

CXCR4, sequence (P70658 whole entry): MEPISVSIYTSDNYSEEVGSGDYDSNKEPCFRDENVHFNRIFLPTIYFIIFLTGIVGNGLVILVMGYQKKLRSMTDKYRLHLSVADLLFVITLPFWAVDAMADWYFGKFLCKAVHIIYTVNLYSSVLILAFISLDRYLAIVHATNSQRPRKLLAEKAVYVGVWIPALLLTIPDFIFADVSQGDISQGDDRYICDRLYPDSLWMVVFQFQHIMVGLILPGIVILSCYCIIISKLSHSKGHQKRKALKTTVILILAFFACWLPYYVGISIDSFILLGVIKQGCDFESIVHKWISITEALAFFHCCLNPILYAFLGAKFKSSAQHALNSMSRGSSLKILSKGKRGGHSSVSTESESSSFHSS

c1cc(CN2CCCNCCNCCCNCC2)ccc1CN1CCCNCCNCCCNCC1 [AMD3100]
cofilin-rods formed by neurons treated with gp120 [1]: inhibited

Cc1nnc(C(C)C)n1[C@@H]1C[C@H]2CC[C@@H](C1)N2CC[C@H](NC(=O)C1CCC(F)(F)CC1)c1ccccc1 [maraviroc]
dendritic spines and neurite cortical projections [2]: preservation of dendritic spines and new patterns of neurite cortical projections | cofilin-rods formed by neurons treated with gp120 [3]: inhibited

[D-Ala1]-Ser-Thr-Thr-Thr-Asn-Tyr-Thr-NH2 [DAPTA]
cognitive deficits [4]: able to reverse cognitive deficits
